Data taken from patent US9637453B2, “3-spirocyclic-6-hydroxamic acid tetralins as HDAC inhibitors” (Forma Therapeutics, Inc., priority 2015, dated 2017).

Experiments:
[1] = target: T1, Full length human recombinant HDAC6 (Homo sapiens, UniProt Q9UBN7); test: In vitro histone deacetylase assay, enzymatic HDAC6 (electrophoretic mobility shift assay); assay type: biochemical; conditions: 1 nM HDAC6; 2 μM peptide substrate FAM-RHKK(Ac)—NH2; 25° C.; 12 concentrations; read-out: HDAC6 Activity Range (IC50)
T1 construct: Full length human recombinant HDAC6 and HDAC11 proteins were expressed in baculoviral system
T1 sequence (Q9UBN7 1-1215): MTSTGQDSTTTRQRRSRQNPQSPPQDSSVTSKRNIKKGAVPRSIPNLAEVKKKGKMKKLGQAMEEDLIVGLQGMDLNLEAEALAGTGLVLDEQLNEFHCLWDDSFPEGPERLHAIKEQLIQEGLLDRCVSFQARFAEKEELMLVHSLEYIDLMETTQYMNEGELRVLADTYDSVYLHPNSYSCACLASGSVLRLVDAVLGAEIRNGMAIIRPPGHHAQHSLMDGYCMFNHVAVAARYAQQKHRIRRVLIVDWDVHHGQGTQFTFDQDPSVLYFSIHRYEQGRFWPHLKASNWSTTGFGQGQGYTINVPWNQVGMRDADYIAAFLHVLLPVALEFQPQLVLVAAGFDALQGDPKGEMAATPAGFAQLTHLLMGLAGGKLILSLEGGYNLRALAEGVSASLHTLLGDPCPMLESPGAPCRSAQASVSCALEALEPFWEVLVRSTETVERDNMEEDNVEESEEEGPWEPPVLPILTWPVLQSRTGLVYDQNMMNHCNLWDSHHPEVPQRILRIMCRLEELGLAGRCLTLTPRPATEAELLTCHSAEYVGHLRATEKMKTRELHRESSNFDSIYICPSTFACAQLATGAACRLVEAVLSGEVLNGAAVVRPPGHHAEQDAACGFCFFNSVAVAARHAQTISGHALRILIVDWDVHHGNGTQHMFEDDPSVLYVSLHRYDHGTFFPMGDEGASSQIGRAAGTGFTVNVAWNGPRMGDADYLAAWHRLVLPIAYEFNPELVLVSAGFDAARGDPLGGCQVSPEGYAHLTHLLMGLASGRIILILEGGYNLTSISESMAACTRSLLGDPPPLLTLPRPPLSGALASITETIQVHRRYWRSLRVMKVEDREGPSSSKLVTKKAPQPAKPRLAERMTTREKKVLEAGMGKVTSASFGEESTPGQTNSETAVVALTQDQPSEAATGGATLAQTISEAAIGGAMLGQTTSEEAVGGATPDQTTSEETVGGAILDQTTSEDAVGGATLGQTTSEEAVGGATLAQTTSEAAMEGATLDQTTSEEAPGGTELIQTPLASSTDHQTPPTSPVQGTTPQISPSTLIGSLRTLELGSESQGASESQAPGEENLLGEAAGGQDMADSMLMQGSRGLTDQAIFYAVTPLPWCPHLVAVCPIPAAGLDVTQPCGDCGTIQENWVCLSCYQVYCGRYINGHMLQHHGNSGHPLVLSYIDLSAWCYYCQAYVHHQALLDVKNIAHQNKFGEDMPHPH
Outline: (§1)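 Baculovirus-expressed full-length enzymes (HDAC6 1 nM, FAM-RHKK(Ac)-NH2; HDAC11 10 nM, FAM-RHKK(tri-fluor-Ac)-NH2), 2 μM substrate, HEPES pH 7.5, 25°C, 12-point 3× dilutions. Product/substrate separated by microfluidic mobility shift after SDS quench; IC50 from 4-parameter fit, reported as +/++/+++ bins.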

[2] = target: T2, Full length human recombinant HDAC11 (Homo sapiens, UniProt Q96DB2); test: In vitro histone deacetylase assay, enzymatic HDAC11 (electrophoretic mobility shift assay); assay type: biochemical; conditions: 10 nM HDAC11; 2 μM peptide substrate FAM-RHKK(tri-fluor-Ac)—NH2; 25° C.; 12 concentrations; read-out: HDAC11 Activity Range (IC50)
T2 construct: Full length human recombinant HDAC6 and HDAC11 proteins were expressed in baculoviral system
T2 sequence (Q96DB2 1-347): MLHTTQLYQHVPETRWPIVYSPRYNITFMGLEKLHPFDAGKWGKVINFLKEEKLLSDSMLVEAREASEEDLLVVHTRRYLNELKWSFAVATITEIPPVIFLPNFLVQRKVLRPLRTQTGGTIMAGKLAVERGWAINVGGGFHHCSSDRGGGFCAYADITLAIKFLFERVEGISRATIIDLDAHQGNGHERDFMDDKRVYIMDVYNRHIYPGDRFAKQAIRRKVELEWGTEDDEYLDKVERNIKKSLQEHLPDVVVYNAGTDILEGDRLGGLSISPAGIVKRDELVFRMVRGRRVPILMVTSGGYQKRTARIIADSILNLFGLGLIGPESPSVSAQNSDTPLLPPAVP
Outline: as §1

| IC50 [1] [nM] | IC50 [2] [nM] | SMILES |
| --- | --- | --- |
| ≤ 100 | > 500 | Cc1ccc(N2CC[C@@]3(CCc4ccc(C(=O)NO)cc4C3)C2=O)c(C)c1 [Compound I-113, (S)-1′-(2,4-dimethylphenyl)-N-hydroxy-2′-oxo-3,4-dihydro-H-spiro[naphthalene-2,3′-pyrrolidine]-7-carboxamide] |
| ≤ 100 | > 500 | COc1ccccc1N1CC[C@@]2(CCc3ccc(C(=O)NO)cc3C2)C1=O [Compound I-114, (S)—N-hydroxy-1′-(2-methoxyphenyl)-2′-oxo-3,4-dihydro-1H-spiro[naphthalene-2,3′-pyrrolidine]-7-carboxamide] |
| ≤ 100 | > 500 | O=C(NO)c1ccc2c(c1)C[C@@]1(CC2)CCN(c2ccc3c(c2)OCO3)C1=O [Compound I-115, (S)-1′-(benzo[d][1,3]dioxol-5-yl)-N-hydroxy-2′-oxo-3,4-dihydro-1H-spiro[naphthalene-2,3′-pyrrolidine]-7-carboxamide] |
| ≤ 100 | > 500 | O=C(NO)c1ccc2c(c1)C[C@@]1(CC2)CCN(c2ccc(Oc3ccccc3)cc2)C1=O [Compound I-116, (S)—N-hydroxy-2′-oxo-1′-(4-phenoxyphenyl)-3,4-dihydro-1H-spiro[naphthalene-2,3′-pyrrolidine]-7-carboxamide] |
| ≤ 100 | > 500 | O=C(NO)c1ccc2c(c1)C[C@]1(CC2)CCN(c2cccc(OCCN3CCOCC3)c2)C1=O [Compound I-117, (R)—N-hydroxy-1′-(3-(2-morpholinoethoxy)phenyl)-2′-oxo-3,4-dihydro-1H-spiro[naphthalene-2,3′-pyrrolidine]-7-carboxamide] |
| ≤ 100 | > 500 | O=C(NO)c1ccc2c(c1)C[C@@]1(CC2)CCN(c2cnc3ccccc3c2)C1=O [Compound I-118, (S)—N-hydroxy-2′-oxo-1′-(quinolin-3-yl)-3,4-dihydro-1H-spiro[naphthalene-2,3′-pyrrolidine]-7-carboxamide] |
| ≤ 100 | > 500 | CN(C)CCc1ccc(N2CC[C@@]3(CCc4ccc(C(=O)NO)cc4C3)C2=O)cc1 [Compound I-119, (S)-1′-(4-(2-(dimethylamino)ethyl)phenyl)-N-hydroxy-2′-oxo-3,4-dihydro-1H-spiro[naphthalene-2,3′-pyrrolidine]-7-carboxamide] |
| ≤ 100 | > 500 | CN1CC[C@]2(CCc3ccc(C(=O)NO)cc3C2)C1=O [Compound I-120, (R)—N-hydroxy-1′-methyl-2′-oxo-3,4-dihydro-1H-spiro[naphthalene-2,3′-pyrrolidine]-7-carboxamide] |
| ≤ 100 | > 500 | CN1CC[C@@]2(CCc3ccc(C(=O)NO)cc3C2)C1=O [Compound I-121, (S)—N-hydroxy-1′-methyl-2′-oxo-3,4-dihydro-1H-spiro[naphthalene-2,3′-pyrrolidine]-7-carboxamide] |
| ≤ 100 | ≤ 100 | Cc1ccc(CN2CC[C@@]3(CCc4ccc(C(=O)NO)cc4C3)C2=O)cc1 [Compound I-122, (S)—N-hydroxy-1′-(4-methylbenzyl)-2′-oxo-3,4-dihydro-1H-spiro[naphthalene-2,3′-pyrrolidine]-7-carboxamide] |
| ≤ 100 | > 500 | Cc1ccc(CN2CC[C@]3(CCc4ccc(C(=O)NO)cc4C3)C2=O)cc1 [Compound I-123, (R)—N-hydroxy-1′-(4-methylbenzyl)-2′-oxo-3,4-dihydro-1H-spiro[naphthalene-2,3′-pyrrolidine]-7-carboxamide] |
| ≤ 100 | ≤ 100 | O=C(NO)c1ccc2c(c1)C[C@@]1(CC2)CCN(Cc2ccc(C(F)(F)F)c(F)c2)C1=O [Compound I-124, (S)-1′-(3-fluoro-4-(trifluoromethyl)benzyl)-N-hydroxy-2′-oxo-3,4-dihydro-1H-spiro[naphthalene-2,3′-pyrrolidine]-7-carboxamide] |
| ≤ 100 | 100 to 500 | O=C(NO)c1ccc2c(c1)C[C@]1(CC2)CCN(Cc2ccc(C(F)(F)F)c(F)c2)C1=O [Compound I-125, (R)-1′-(3-fluoro-4-(trifluoromethyl)benzyl)-N-hydroxy-2′-oxo-3,4-dihydro-1H-spiro[naphthalene-2,3′-pyrrolidine]-7-carboxamide] |
| ≤ 100 | ≤ 100 | O=C(NO)c1ccc2c(c1)C[C@@]1(CC2)CCN(Cc2ccc(C(F)(F)F)cc2)C1=O [Compound I-126, (S)—N-hydroxy-2′-oxo-1′-(4-(trifluoromethyl)benzyl)-3,4-dihydro-1H-spiro[naphthalene-2,3′-pyrrolidine]-7-carboxamide] |
| ≤ 100 | 100 to 500 | O=C(NO)c1ccc2c(c1)C[C@]1(CC2)CCN(Cc2ccc(C(F)(F)F)cc2)C1=O [Compound I-127, (R)—N-hydroxy-2′-oxo-1′-(4-(trifluoromethyl)benzyl)-3,4-dihydro-1H-spiro[naphthalene-2,3′-pyrrolidine]-7-carboxamide] |
| ≤ 100 | > 500 | O=C(NO)c1ccc2c(c1)C[C@]1(CC2)CC(=O)N(Cc2ccc(F)cc2)C1 [Compound I-128, (R)-1′-(4-fluorobenzyl)-N-hydroxy-5′-oxo-3,4-dihydro-1H-spiro[naphthalene-2,3′-pyrrolidine]-7-carboxamide] |
| ≤ 100 | > 500 | O=C(NO)c1ccc2c(c1)C[C@@]1(CC2)CC(=O)N(Cc2ccc(F)cc2)C1 [Compound I-129, (S)-1′-(4-fluorobenzyl)-N-hydroxy-5′-oxo-3,4-dihydro-1H-spiro[naphthalene-2,3′-pyrrolidine]-7-carboxamide] |
| ≤ 100 | > 500 | CN1C[C@@]2(CCc3ccc(C(=O)NO)cc3C2)CC1=O [Compound I-130, (R)—N-hydroxy-1′-methyl-5′-oxo-3,4-dihydro-1H-spiro[naphthalene-2,3′-pyrrolidine]-7-carboxamide] |
| ≤ 100 | > 500 | CN1C[C@]2(CCc3ccc(C(=O)NO)cc3C2)CC1=O [Compound I-131, (S)—N-hydroxy-1′-methyl-5′-oxo-3,4-dihydro-1H-spiro[naphthalene-2,3′-pyrrolidine]-7-carboxamide] |
| ≤ 100 | > 500 | O=C(NO)c1ccc2c(c1)C[C@@]1(CC2)CC(=O)N(c2ccccc2)C1 [Compound I-132, (S)—N-hydroxy-5′-oxo-1′-phenyl-3,4-dihydro-1H-spiro[naphthalene-2,3′-pyrrolidine]-7-carboxamide] |
| ≤ 100 | > 500 | O=C(NO)c1ccc2c(c1)C[C@]1(CC2)CC(=O)N(CC2CCC2)C1 [Compound I-133, (R)-1′-(cyclobutylmethyl)-N-hydroxy-5′-oxo-3,4-dihydro-1H-spiro[naphthalene-2,3′-pyrrolidine]-7-carboxamide] |
| ≤ 100 | > 500 | O=C(NO)c1ccc2c(c1)C[C@@]1(CC2)CC(=O)N(CC2CCC2)C1 [Compound I-134, (S)-1′-(cyclobutylmethyl)-N-hydroxy-5′-oxo-3,4-dihydro-1H-spiro[naphthalene-2,3′-pyrrolidine]-7-carboxamide] |
| ≤ 100 | > 500 | COCCCN1C[C@@]2(CCc3ccc(C(=O)NO)cc3C2)CC1=O [Compound I-135, (R)—N-hydroxy-1′-(3-methoxypropyl)-5′-oxo-3,4-dihydro-1H-spiro[naphthalene-2,3′-pyrrolidine]-7-carboxamide] |
